Measurements from PubChem BioAssay (NCI).
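Interpolation was linear, between the two tested concentrations surrounding the appropriate level; five concentrations were tested over 48 hours in 96-well plates. Abbreviation: GI50, concentration required for 50% inhibition of growth. The concentration for full growth arrest is given as TGI.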

Assays:
Assay in all cases: DTP human tumour cell line panel, 48 h; in the data active = GI50 below about 0.43 µM; inactive = the rest
[1] = system: SW-620 colon
[2] = system: DU-145 prostate
[3] = system: M14 melanoma
[4] = system: SK-OV-3 ovarian
[5] = system: OVCAR-8 ovarian
[6] = system: SK-MEL-28 melanoma
[7] = system: SR leukemia
[8] = system: RXF 393 renal
[9] = system: OVCAR-5 ovarian
[10] = system: CCRF-CEM leukemia
[11] = system: HOP-62 NSCLC
[12] = system: HS 578T breast
[13] = system: NCI-H226 lung
[14] = system: HOP-92 NSCLC
[15] = system: T-47D breast
[16] = system: BT-549 breast
[17] = system: KM12 colon
[18] = system: UACC-257 melanoma
[19] = system: RPMI-8226 leukemia
[20] = system: U251 CNS
[21] = system: CAKI-1 renal
[22] = system: SN12C renal
[23] = system: LOX IMVI melanoma
[24] = system: NCI-H522 lung
[25] = system: SK-MEL-2 melanoma
[26] = system: UACC-62 melanoma
[27] = system: MDA-MB-231 breast
[28] = system: COLO 205 colon
[29] = system: OVCAR-3 ovarian

O=C(N/N=C\c1cc(Cl)ccc1O)c1ccncc1
22.4 µM: TGI [24]
13.7 µM: TGI [26]
23.4 µM: TGI [3]
61.3 µM: TGI [14]
inactive: GI50 [1] 3.42 µM | GI50 [2] 4.63 µM | GI50 [3] 3.05 µM | GI50 [4] 5.39 µM | GI50 [5] 3.39 µM | GI50 [6] 3.05 µM | GI50 [7] 2.85 µM | GI50 [8] 2.43 µM | GI50 [9] 25.5 µM | GI50 [10] 2.15 µM | GI50 [11] 2.97 µM | GI50 [12] 26 µM | GI50 [13] 2.61 µM | GI50 [14] 3.47 µM | GI50 [15] 2.1 µM | GI50 [16] 9.18 µM | GI50 [17] 4.61 µM | GI50 [18] 4.16 µM | GI50 [19] 8.85 µM | GI50 [20] 1.86 µM | GI50 [21] 1.65 µM | GI50 [22] 4 µM | GI50 [23] 1.56 µM | GI50 [24] 2.69 µM | GI50 [25] 19.5 µM | GI50 [26] 1.48 µM | GI50 [27] 3.67 µM | GI50 [28] 4.21 µM | GI50 [29] 0.617 µM
59 µM: TGI [13]
> 100 µM: TGI [1] | TGI [2] | TGI [4] | TGI [5] | TGI [6] | TGI [7] | TGI [8] | TGI [9] | TGI [10] | TGI [11] | TGI [12] | TGI [15] | TGI [16] | TGI [17] | TGI [18] | TGI [19] | TGI [20] | TGI [21] | TGI [22] | TGI [23] | TGI [25] | TGI [27] | TGI [28] | TGI [29]
